Earlier results as cited in patent publication US20090192128A1 (priority 2005, published 2009).
Where a name gives a salt, the structure may show the parent alone.

Row | Structure (SMILES) | solubility in organic solvents (organic solvents such as ethanol, ether and chloroform) | solubility in water | solubility in alcohol (alcohol) | solubility in ether (ether)
1 | O=[N+]([O-])O[C@H]1CO[C@H]2[C@@H]1OC[C@H]2O[N+](=O)[O-] [Diluted isosorbide dinitrate, 1,4,3,6-dianhydro-D-glucitol-2,5-dinitrate] | freely soluble | sparingly soluble | – | –
2 | NNc1nncc2ccccc12 [Hydralazine hydrochloride, hydralazine hydrochloride] | – | soluble | slightly soluble | very slightly soluble
